Source: patent US10173971B2, “Picolinamides with fungicidal activity” (DOW AGROSCIENCES LLC, priority 2014, dated 2019)
Where two headings read alike, the source gives them in different places.

Legend:
Puccinia triticina = assay: Fungicidal activity: wheat brown rust (PUCCRT), wheat seedlings, booth sprayer to run-off or track spray; assay type: in vivo; details: for pest or weed control at 121.5 g/ha: Low-Volume Cereal Activity at 121.5 g/H; for pest or weed control at 100 ppm: High-Volume Cereal Activity at 100 ppm
Experimental: All fungicides were evaluated using the aforementioned method for their activity vs. all target diseases. Wheat leaf blotch and brown rust activity were also evaluated using track spray applications, in which case the fungicides were formulated as EC formulations, containing 0.1% Trycol 5941 in the spray solutions. Wheat plants (variety Yuma) were grown from seed in a greenhouse in 50% mineral soil/50% soil-less Metro mix until the first leaf was fully emerged, with 7-10 seedlings per pot. These plants were inoculated with an aqueous spore suspension of Puccinia triticina either prior to or after fungicide treatments. […] The plants were then transferred to a greenhouse set at 24° C. for disease to develop. Fungicide formulation, application and disease assessment followed the procedures as described in the Example A.

Zymoseptoria tritici = assay: Fungicidal activity: leaf blotch of wheat (SEPTTR), wheat seedlings, booth sprayer to run-off or track spray; assay type: in vivo; details: for pest or weed control at 121.5 g/ha: Low-Volume Cereal Activity at 121.5 g/H; for pest or weed control at 100 ppm: High-Volume Cereal Activity at 100 ppm
Experimental: All fungicides were evaluated using the aforementioned method for their activity vs. all target diseases. Wheat leaf blotch and brown rust activity were also evaluated using track spray applications, in which case the fungicides were formulated as EC formulations, containing 0.1% Trycol 5941 in the spray solutions. Wheat plants (variety Yuma) were grown from seed in a greenhouse in 50% mineral soil/50% soil-less Metro mix until the first leaf was fully emerged, with 7-10 seedlings per pot. These plants were inoculated with an aqueous spore suspension of Zymoseptoria tritici either prior to or after fungicide treatments. After inoculation the plants were kept in 100% relative humidity (one day in a dark dew chamber followed by two to three days in a lighted dew chamber at 20° C.) to permit spores to germinate and infect the leaf. The plants were then transferred to a greenhouse set at 20° C. for disease to develop. When disease symptoms were fully expressed on the 1st leaves of untreated plants, infection levels were assessed on a scale of 0 to 100 percent disease severity. Percent disease control was calculated using the ratio of disease severity on treated plants relative to untreated plants.

[1] = 24 h, 1 Day Protectant, read-out: PUCCRT 1DP
[2] = 72 h, 3 Day Curative, read-out: PUCCRT 3DC
[3] = 24 h, 1 Day Protectant, read-out: SEPTTR 1DP
[4] = 72 h, 3 Day Curative, read-out: SEPTTR 3DC
[5] = 3DC (Day Curative), read-out: SEPTTR 3DC
[6] = 3DC (Day Curative), read-out: PUCCRT 3DC

Row | SMILES | pest or weed control at 121.5 g/ha (Puccinia triticina; [1]) [%] | pest or weed control at 121.5 g/ha (Puccinia triticina; [2]) [%] | pest or weed control at 121.5 g/ha (Zymoseptoria tritici; [3]) [%] | pest or weed control at 121.5 g/ha (Zymoseptoria tritici; [4]) [%] | pest or weed control at 100 ppm (Puccinia triticina; [1]) [%] | pest or weed control at 100 ppm (Zymoseptoria tritici; [3]) [%] | pest or weed control at 100 ppm (Zymoseptoria tritici; [5]) [%] | pest or weed control at 100 ppm (Puccinia triticina; [6]) [%]
1 | CCC[C@@H](Cc1ccccc1)[C@H](C)OC(=O)[C@H](C)NC(=O)c1nccc(OC)c1OCOC(C)=O [compound 184] | 80 to 100 | 80 to 100 | 80 to 100 | 80 to 100 |  |  |  | 
2 | COc1ccnc(C(=O)N[C@@H](C)C(=O)O[C@@H](C)[C@H](Cc2ccc(F)cc2)c2ccccc2)c1OCOC(=O)C(C)C [compound 223] | 80 to 100 | 0 to 80 | 80 to 100 | 80 to 100 |  |  |  | 
3 | CCCC[C@@H]([C@H](C)OC(=O)[C@H](C)NC(=O)c1nccc(OC)c1OC(=O)O)[C@@H](CC)Oc1ccccc1 [compound 190] | 80 to 100 | 80 to 100 | 80 to 100 | 80 to 100 |  |  |  | 
4 | COc1ccnc(C(=O)N[C@@H](C)C(=O)O[C@@H](C)[C@H](Cc2ccc(Cl)c(Cl)c2)c2ccccc2)c1O [compound 127] |  |  |  |  | 0 to 80 | 0 to 80 | 0 to 80 | 
5 | CCCC[C@H](c1ccccc1)[C@H](C)OC(=O)[C@H](C)NC(=O)c1nccc(OC)c1OC(C)=O [compound 197] | 80 to 100 | 80 to 100 | 80 to 100 | 80 to 100 |  |  |  | 
6 | COc1ccc(C[C@H](COc2ccc(F)cc2F)[C@H](C)OC(=O)[C@H](C)NC(=O)c2nccc(OC)c2O)cc1 [compound 160] |  |  |  |  | 80 to 100 | 0 to 80 |  | 
7 | CCOCC(=O)OCOc1c(OC)ccnc1C(=O)N[C@@H](C)C(=O)O[C@@H](C)[C@H](Cc1ccc(F)cc1)C(C)(C)OC [compound 238] | 80 to 100 | 0 to 80 | 0 to 80 | 0 to 80 |  |  |  | 
8 | CC[C@H](CCCc1ccccc1)[C@@H](CC(C)C)[C@H](C)OC(=O)C(C)NC(=O)c1nccc(OC)c1O (stereo partly shown) [compound 101] |  |  |  |  | 80 to 100 | 80 to 100 |  | 0 to 80
9 | CCCOC(C)(C)[C@@H](Cc1ccccc1)[C@H](C)OC(=O)[C@H](C)NC(=O)c1nccc(OC)c1OCOC(C)=O [compound 207] | 80 to 100 | 80 to 100 | 80 to 100 | 80 to 100 |  |  |  | 
10 | COc1ccnc(C(=O)N[C@@H](C)C(=O)O[C@@H](C)[C@H](Cc2ccccc2)C(C)C)c1OCOC(C)=O [compound 206] | 80 to 100 | 80 to 100 | 80 to 100 | 80 to 100 |  |  |  | 
11 | COC[C@@H](Cc1ccc(F)cc1)[C@H](C)OC(=O)[C@H](C)NC(=O)c1nccc(OC)c1O [compound 135] |  |  |  |  | 80 to 100 | 0 to 80 | 0 to 80 | 0 to 80
12 | CCCOC[C@@H](Cc1ccccc1)[C@H](C)OC(=O)CNC(=O)c1nccc(OC)c1O [compound 104] |  |  |  |  |  |  | 0 to 80 | 0 to 80
13 | COc1ccnc(C(=O)N[C@@H](C)C(=O)O[C@@H](C)[C@H](Cc2ccc(Cl)cc2)c2ccccc2)c1O [compound 121] |  |  |  |  | 80 to 100 | 80 to 100 | 0 to 80 | 0 to 80
14 | CCCC[C@H](c1ccccc1)[C@H](C)OC(=O)[C@H](C)NC(=O)c1nccc(OC)c1O [compound 120] |  |  |  |  |  |  | 0 to 80 | 0 to 80
15 | COc1ccnc(C(=O)N[C@@H](C)C(=O)O[C@@H](C)[C@H](Cc2ccc(C)cc2)c2ccccc2)c1O [compound 128] |  |  |  |  | 80 to 100 | 80 to 100 | 0 to 80 | 
16 | COc1ccnc(C(=O)N[C@@H](C)C(=O)O[C@@H](C)[C@H](Cc2ccc(Cl)cc2)c2ccccc2)c1OC(=O)C(C)C [compound 202] | 0 to 80 | 0 to 80 | 80 to 100 | 80 to 100 |  |  |  | 
17 | COc1ccnc(C(=O)N[C@@H](C)C(=O)O[C@@H](C)[C@@H](COc2ccccc2)Cc2ccccc2)c1OCOC(C)=O [compound 208] | 80 to 100 | 0 to 80 | 80 to 100 | 0 to 80 |  |  |  | 

Row | SMILES | pest or weed control at 121.5 g/ha (Puccinia triticina; [1]) [%] | pest or weed control at 121.5 g/ha (Puccinia triticina; [2]) [%] | pest or weed control at 121.5 g/ha (Zymoseptoria tritici; [3]) [%] | pest or weed control at 121.5 g/ha (Zymoseptoria tritici; [4]) [%] | pest or weed control at 100 ppm (Puccinia triticina; [1]) [%] | pest or weed control at 100 ppm (Zymoseptoria tritici; [3]) [%] | pest or weed control at 100 ppm (Zymoseptoria tritici; [5]) [%] | pest or weed control at 100 ppm (Puccinia triticina; [6]) [%]
18 | COc1ccnc(C(=O)N[C@@H](C)C(=O)O[C@@H](C)[C@H](Cc2ccc(Cl)c(Cl)c2)c2ccccc2)c1OC(C)=O [compound 216] | 0 to 80 | 0 to 80 | 80 to 100 | 0 to 80 |  |  |  | 
19 | CCCO[C@@H](CC)[C@@H](Cc1ccccc1)[C@H](C)OC(=O)[C@H](C)NC(=O)c1nccc(OC)c1O [compound 91] |  |  |  |  | 80 to 100 | 0 to 80 | 80 to 100 | 80 to 100
20 | COc1ccnc(C(=O)N[C@@H](C)C(=O)O[C@@H](C)[C@H](Cc2ccc(C)cc2)c2ccccc2)c1OC(C)=O [compound 220] | 0 to 80 | 0 to 80 | 80 to 100 | 80 to 100 |  |  |  | 
21 | COc1ccnc(C(=O)N[C@@H](C)C(=O)O[C@@H](C)[C@H](Cc2ccc(Cl)cc2)c2ccccc2)c1OCOC(C)=O [compound 203] | 80 to 100 | 0 to 80 | 80 to 100 | 80 to 100 |  |  |  | 
22 | COc1ccnc(C(=O)N[C@@H](C)C(=O)O[C@@H](C)[C@H](Cc2ccccc2)c2ccccc2)c1OC(C)=O [compound 196] | 80 to 100 | 0 to 80 | 80 to 100 | 80 to 100 |  |  |  | 
23 | CCCO[C@@H](CC)[C@@H](Cc1ccccc1)[C@H](C)OC(=O)[C@H](CC)NC(=O)c1nccc(OC)c1O [compound 95] |  |  |  |  | 80 to 100 | 0 to 80 | 0 to 80 | 80 to 100
24 | COc1ccnc(C(=O)N[C@@H](C)C(=O)O[C@@H](C)[C@@H](COc2ccc(Cl)cc2Cl)Cc2ccccc2)c1OCOC(C)=O [compound 209] | 0 to 80 |  | 0 to 80 | 0 to 80 |  |  |  | 
25 | CCCOC[C@@H](Cc1ccccc1)[C@H](C)OC(=O)C(COC)NC(=O)c1nccc(OC)c1O (stereo partly shown) [compound 106] |  |  |  |  | 0 to 80 |  | 0 to 80 | 0 to 80
26 | COc1ccc(C[C@H](COCC2CC2)[C@H](C)OC(=O)[C@H](C)NC(=O)c2nccc(OC)c2OCOC(C)=O)cc1 [compound 280] | 80 to 100 | 80 to 100 | 0 to 80 | 80 to 100 |  |  |  | 
27 | COc1ccnc(C(=O)N[C@@H](C)C(=O)OC(C)C(Cc2ccccc2)Cc2ccccc2)c1O (stereo partly shown) [compound 147] |  |  |  |  | 80 to 100 | 80 to 100 |  | 
28 | CC[C@H](NC(=O)c1nccc(OC)c1OCOC(C)=O)C(=O)O[C@@H](C)C(Cc1cccc(OC)c1)Cc1cccc(OC)c1 [compound 275] | 80 to 100 | 0 to 80 | 0 to 80 |  |  |  |  | 
29 | COC[C@@H](Cc1ccc(F)cc1)[C@H](C)OC(=O)[C@H](C)NC(=O)c1nccc(OC)c1OC(C)=O [compound 231] | 0 to 80 | 0 to 80 | 0 to 80 | 0 to 80 |  |  |  | 
30 | CCCOC(C)(C)[C@@H](Cc1ccc(OC)cc1)[C@H](C)OC(=O)[C@H](C)NC(=O)c1nccc(OC)c1OCOC(C)=O [compound 257] | 80 to 100 |  |  | 0 to 80 |  |  |  | 
31 | CC[C@H](Cc1ccccc1)[C@@H](Cc1ccc(OC(F)(F)F)cc1)[C@H](C)OC(=O)[C@H](C)NC(=O)c1nccc(OC)c1O [compound 112] |  |  |  |  | 0 to 80 | 0 to 80 |  | 
32 | COc1ccnc(C(=O)N[C@@H](C)C(=O)OC(C)C(Cc2ccc(F)cc2)Cc2ccc(F)cc2)c1OC(C)=O (stereo partly shown) [compound 264] | 0 to 80 |  | 0 to 80 |  |  |  |  | 
33 | CCCC[C@@H]([C@H](C)OC(=O)[C@H](C)NC(=O)c1nccc(OC)c1O)[C@@H](CC)Oc1ccccc1 [compound 116] |  |  |  |  | 0 to 80 | 0 to 80 | 0 to 80 | 80 to 100
